No end group written: not given here.
Columns and labels:
[1] = system: homotypic TMD-TMD interaction (ToxR / ctx promoter / β-galactosidase reporter in FHK12 E. coli); test: Homotypic ToxR reporter assay (β-galactosidase); type: cell-based; conditions: for Mean homotypic TMD interaction (ToxR): β-galactosidase Miller units normalized to GpA signal and expression levels, FHK12 E. coli, 3 replicates with >6 measurements each, N in table
Protocol: . Various plasmid constructs for this assay make it possible to monitor both homotypic and heterotypic interactions that are driven by TMD-TMD association (Fig. S1).
We first investigated homotypic interactions because the majority of the TLR family members function as homodimers. […] This ΔTM construct consists of the same maltose binding protein and ToxR domain, but lacks a TMD for proper membrane insertion (Fig. S2). Statistical analysis using the Tukey-Kramer test was performed to analyze any significant differences between all possible pairs of average interaction potentials (Table S2). […] Among the TLRs, no discernable differences in grouping based on statistical analysis at p = 0.05 were indicated as all receptors belonged to multiple groups, except for TLR1, which with the lowest interaction potential among the family of receptors only existed in one group (Table S1).
Figure 2 Toll-like Receptor Transmembrane Domain Homotypic Interactions. (A) The ToxR assay was used to study homotypic interactions of the TLR TMDs. A chimeric protein expressing the TMD of interest was monitored through β-galactosidase activity. In all cases, we saw that the TLRs have interaction potential solely from TMD-TMD interactions. Each TLR TMD interaction measurement analysis was performed on 3 technical replicates with >6 measurements for each replicate. Error bars depict the standard error of the mean (n – Table S1). Western blots staining for MBP were performed to monitor expression levels of the constructs – (B) chimeric maltose binding protein expression, (C) endogenous maltose binding protein expression. All samples were normalized to the GpA signal and expression levels.
Briefly, the ToxR plasmids containing the TMD of interest (200 ng) were transformed into chemically competent FHK12 E. coli (200 µL) by incubating on ice for 30 min, heat shock at 42°C for 90 s, incubation on ice for 2 min, and addition of SOC media (800 µL) followed by incubation with shaking for 1 h at 37°C. This transformation mixture (50 µL) was then spread on LB agar plates containing cholaramphenicol (30 µg/mL) and ampicillin (100 µg/mL) and grown overnight at 37°C. Single colonies were selected from the plates in triplicate and added to 5 mL of LB media containing cholaramphenicol (30 µg/mL), ampicillin (100 µg/mL), and arabinose (0.0025%). These cultures were incubated overnight (16–20 h) with shaking at 37°C. The β-galactosidase activity was monitored using a Beckman Coulter DTX 880 plate-reader. First 5 µL of each culture was plated >6 times in a clear 96-well flat bottom culture plate (Sarstedt) containing 100 µL of Z-buffer/chloroform (1% β-mercaptoethanol, 10% chloroform, 89% Z buffer: […], 10 mM potassium chloride, 1 mM magnesium sulfate, pH 7.0). The cell densities of each well were recorded by measuring the OD595. Bacteria were lysed by the addition of 50 µL Z-buffer/SDS (1.6% sodium dodecyl sulfate w/v in Z-buffer) and shaking at 28°C for 10 min. Enzymatic activity was measured by adding 50 µL of Z-buffer/ortho-Nitrophenyl-β-[…] (ONPG) (0.4% ONPG w/v in Z-buffer) and monitoring the reaction at 405 nm for a period of 20 min at 30 s intervals. Miller units were calculated using the equation: [drawing 1]
Western blotting was performed with antiserum recognizing the maltose-binding protein moiety of the constructs (Abcam). Data were normalized to GpA Miller Units and protein expression levels using ImageJ (NIH) as reported previously.

[2] = system: TLR6 TMD (functional ToxR chimera); test: Dominant-negative (heterotypic) ToxR assay, TLR6 as dominant phenotype; type: cell-based, E. coli; conditions: Miller units normalized to poly-Leu* = 1 and corrected for expression, lower = stronger interaction, N in table
Source text: (§1) Next, we investigated heterotypic interactions of the TLRs. We specifically studied TLR2, TLR1, and TLR6 because they are cell surface expressed receptors known to form functional heterodimers. To determine the ability of these three cell surface TLRs to have heterotypic interactions within its family, we studied the ability of the TLR1, TLR2, and TLR6 TMDs to interact with the TLR receptors also expressed at the cell surface; namely, TLR1, TLR2, TLR4, TLR5, TLR6, and TLR10. We monitored these interactions using a dominant-negative ToxR assay (Fig. S1B) which works by having a second TMD expressed with a non-functional ToxR* intracellular domain. This ToxR* domain is incapable of binding the ctx promoter making any interactions with this second expressed TMD unable to produce the reporter enzyme. As such, any interaction between the functional ToxR and non-functional ToxR* TMDs will result in a reduction in signal output.
(§2) Figure 3 Cell- Surface Toll-like Recptor Heterotypic Interactions. (A) A dominant-negative ToxR assay was used to study heterotypic interactions of the cell-surface TLRs. Two TLR TMDs were encoded in the FHK12 E.coli reporter strain, one with a functional ToxR domain (dominant phenotype) and one with a nonfunctional ToxR* domain (negative phenotype). Interaction between the two different TMDs leads to a reduction in signal from that seen for homotypic interactions. The TMDs for GpA, TLR1, TLR2, and TLR6 were used with the functional ToxR domain while TMDs for poly-Leucine, TMD5, integrin αIIb, TLR1, TLR2, TLR4, TLR5, TLR6, and TLR10 were used with the nonfunctional ToxR* domain. Interactions were most prominent for the TLRs known to have heterotypic interactions – TLR2-TLR1 and TLR2-TLR6. […] We also saw interaction with the same TMD further validating the homotypic interactions. […] Each dominant phenotype was done in 3 technical replicates with each negative phenotype and >6 measurements made for each replicate. Error bars depict the standard error of the mean (n- Tables S3, S5, S7, S9). Western blots staining for MBP were performed to monitor expression levels of the constructs with the upper band being functional ToxR chimeras and the lower band being nonfunctional ToxR* chimeras – (B) GpA, (C) TLR1, (D) TLR2, and (E) TLR6. Significant differences for the same dominant phenotype were determined by use of the Tukey-Kramer test.
(§3) For heterotypic interactions one plasmid containing a functional ToxR domain (200 ng) and a second plasmid containing a non-functional ToxR* domain (200 ng) were co-transformed into chemically competent FHK12 E. coli (400 µL) by incubating on ice for 30 min, heat shock at 42°C for 90 s, incubation on ice for 2 min, and addition of SOC media (1600 µL) followed by incubation with shaking for 1 h at 37°C. This transformation mixture (50 µL) was then used to spread LB-agar plates containing cholaramphenicol (30 µg/mL), kanamycin (33 µg/mL), and ampicillin (100 µg/mL) and grown overnight at 37°C. Single colonies were selected from the plates and grown in 5 mL LB media containing cholaramphenicol (30 µg/mL), kanamycin (33 µg/mL), ampicillin (100 µg/mL), and arabinose (0.0025%) overnight (16–20 h) with shaking at 37°C. Analysis of activity was monitored as described in homotypic ToxR assays. Western blotting was done in the same manner as the homotypic ToxR assay with one band appearing for the functional ToxR construct and a second band for the nonfunctional ToxR* construct. Data were normalized to poly-Leu* Miller Units and corrected for varying protein expression levels using ImageJ (NIH) as previously reported.

[3] = system: TLR1 TMD (functional ToxR chimera); test: Dominant-negative (heterotypic) ToxR assay, TLR1 as dominant phenotype; type: cell-based; conditions: Miller units normalized to poly-Leu* = 1 and corrected for expression, lower = stronger interaction, N in table
Source text: as §1, §2, §3

[4] = system: GpA TMD (functional ToxR chimera); test: Dominant-negative (heterotypic) ToxR assay, GpA as dominant phenotype; type: cell-based; conditions: Miller units normalized to poly-Leu* = 1 and corrected for expression, lower = stronger interaction, N in table
Source text: as §1, §2, §3

[5] = system: TLR2 TMD (functional ToxR chimera); test: Dominant-negative (heterotypic) ToxR assay, TLR2 as dominant phenotype; type: cell-based; conditions: Miller units normalized to poly-Leu* = 1 and corrected for expression, lower = stronger interaction, N in table
Source text: as §1, §2, §3

Substance | Mean homotypic TMD interaction (ToxR) [1] | Mean TLR6-TMD* heterotypic interaction (ToxR signal) [2] | Mean TLR1-TMD* heterotypic interaction (ToxR signal) [3] | Mean GpA-TMD* heterotypic interaction (ToxR signal) [4] | Mean TLR2-TMD* heterotypic interaction (ToxR signal) [5] | Effect of TLR2 point mutation on homotypic interaction ([1]; homotypic ToxR assay, compared with wild type TLR2 TMD (Fig. 7A))
GNRASFALSLL A V A L G L G VPMLHHLGSLIN [TLR9 TMD] | 0.7992 | – | – | – | – | –
TLR4*: TLR4 TMD chimera with nonfunctional ToxR* domain (negative phenotype) (GNRASTIIGVSVLVVSVVAVLVYKFYFGSLIN; also: fused to non-functional ToxR* (S87H) and maltose binding protein, ends not given here) | 0.5620 | 0.9610 | 0.8709 | 1.1905 | 1.1386 | –
GNRASWVLV G VLG G LLLLTILVLAMWGSLIN [Integrin*, Integrin αIIb TMD fused to nonfunctional ToxR* domain, unrelated receptor, reference compound] | – | 0.6106 | 0.7583 | 1.0189 | 0.7609 | –
GNRASVTAVILFFFTFFITTMVMLAALAGSLIN [TLR8 TMD] | 0.7486 | – | – | – | – | –
TLR10*: TLR10 TMD chimera with nonfunctional ToxR* domain (negative phenotype) (GNRASALLIVTIVVIMLVLGLAVAFCCLGSLIN; cysteine pairing not given here; also: fused to non-functional ToxR* (S87H) and maltose binding protein, ends not given here) | 0.8259 | 0.3445 | 0.3608 | 1.1244 | 0.3877 | –
GNRASLILF S L S I S V S LFLMVMMTASHLGSLIN [TLR7 TMD] | 0.4947 | – | – | – | – | –
TLR5*: TLR5 TMD chimera with nonfunctional ToxR* domain (negative phenotype) (GNRASFSLFIVCTVTLTLFLMTILTVTGSLIN; also: fused to non-functional ToxR* (S87H) and maltose binding protein, ends not given here) | 0.6087 | – | 0.6805 | 0.8934 | 0.9233 | –
TLR2 G593V (GNRASALVSVMCCALFLLILLTGVLCGSLIN; cysteine pairing not given here; also: fused to maltose-binding protein and ToxR activation domain, ends not given here) | – | – | – | – | – | no mutation demonstrated significant difference from the wild type TLR2 TMD
GNRASLFFMINTSILLIFIFIVLLIHFGSLIN [TLR3 TMD] | 0.8032 | – | – | – | – | –
GNRASWQLLAFFLAFFLDLILLIIALYLGSLIN [TMD5*, TMD5 of latent membrane protein 1 fused to nonfunctional ToxR* domain, unrelated receptor, reference compound] | – | 1.1235 | 1.0921 | 1.1703 | 1.1904 | –
GNRASLIIF G VMA G VIGTILGSLIN [GpA TMD, reference compound] | 1.0000 | – | – | – | – | –

From paper PMC3498381, “Isolated Toll-like Receptor Transmembrane Domains Are Capable of Oligomerization” (PLoS ONE, 2012)
